How the values were obtained:
H9c2 cells = test: Cytotoxicity (dead-cell protease, Mitochondrial ToxGlo) in differentiated H9c2 cells; type: cell-based
Protocol: (§1) H9c2 cell line was purchased from American Tissue Type Collection (ATCC) (Manassas, Va.). The cells were cultured in low-glucose DMEM growth media (Cat No: 31600, Thermo Fisher Scientific, Waltham, Mass.) supplemented with 1.5 g/L sodium bicarbonate, 25 mM HEPES, 10% fetal bovine serum (FBS) (GE Healthcare, Singapore), 100 units/mL penicillin, 100 μg/mL streptomycin and 250 ng/mL amphotericin B in 75-cm^2 tissue-culture flasks at 37° C. in a humidified atmosphere of 5% CO2. Cells were fed every 2-3 days and sub-cultured once 70-80% confluency was achieved to prevent the loss of differentiation potential. For differentiation, H9c2 cells were seeded at a density of 100,000 cells/well in 12-well plates. The cells were maintained for 1 day in low-glucose high-serum growth media to allow for cell attachment. Subsequently, cells were differentiated using 1 μM ATRA.
(§2) H9c2 cells were seeded in a white chimney plate and differentiated. The media was changed to DMEM with 10 mM galactose, 2 mM glutamine (6 mM final), 5 mM HEPES, 1 mM sodium pyruvate, 100 U/mL penicillin, 100 μg/mL streptomycin, 0.25 μg/mL amphotericin B, 1% FBS, 1× insulin-transferrin-selenium and 1 μM ATRA for 48 h to overcome the Crabtree effect. […] The cytotoxicity and intracellular ATP content were measured concurrently using Mitochondrial ToxGlo™ kit (Promega, Madison, Wis.) using manufacturer's protocol. Mitochondrial ToxGlo™ assay measures the cell viability using fluorogenic peptide bis-alanine-alanine-phenylalanine-R110 (bis-AAF-R110). Bis-AAF-R110 is a selective peptide that measures protease activity in dead cells since it is impermeable to live cells. Here, the fluorescence derived from metabolized bis-AAF-R110 was measured at different concentrations of the test compounds and compared to control. As the concentration of cytotoxic compound increases, the number of dead cells increases, leading to a higher fluorescence signal. ATP is measured by adding the ATP Detection Reagent, resulting in cell lysis and generation of a luminescent signal proportional to the amount of ATP present. […]

[1] = as above; type: cell-based; settings: rat, differentiated H9c2 cells, 6 h exposure, read-out: cytotoxicity EC50 (bis-AAF-R110 dead-cell protease fluorescence)
Protocol: as §1, §2

For `CCCCc1oc2ccc(NS(C)(=O)=O)cc2c1C(=O)c1ccc(OCCCN(CCCC)CCCC)cc1.Cl` [Dronedarone], the EC50 (H9c2 cells; 6 h exposure, read-out: cytotoxicity EC50 (bis-AAF-R110 dead-cell protease fluorescence)) was 1200 nM, the “increase in the protease activity (cell death)” value (H9c2 cells; no pre-treatment with EETs) was 150-200% and the EC50 at 6 h [1] was 1210 nM.

From US20220267288A1, “CARDIAC THERAPEUTIC” (priority 2019, published 2022)
